Tests used:
[1] = target: T1, AMPK protein (recombinant α1β1γ2) (Homo sapiens, UniProt Q13131+Q9UGJ0+Q9Y478); assay: AMPK enzymatic activity (Delfia, AMARA peptide); assay type: biochemical; conditions: compound 30 μM vs AMP 30 μM; 125 μM ATP; direct activator if ratio is 90% or higher
T1 construct: made in house; host or cells: E. coli
Description: The following biological test allows the determination of the efficacy of such compounds of formula (I) onto AMPK protein (recombinant α1β1γ2).
Human recombinant AMPK enzyme was expressed in E. Coli and was reactivated in vitro by LKB1 prior to enzyme activity determination. AMPK enzyme activities were assayed by using A Delfia technology. AMPK enzyme activities were carried out in microtiter plates (50 mM Hepes buffer, pH 7.4 with 125 μM ATP respectively) in the presence of a synthetic peptide substrate (AMARAASAAALARRR, the “AMARA” peptide) and activators in serial dilutions. Reactions were initiated by the addition of AMPK (50-100 ng). Following mixing, the plates were incubated for 30 min at room temperature. Enzyme activity was assayed by using an anti-phosphoserine antibody to measure the quantity of phosphate incorporated into the AMARAA.
Ratio between the % of control (basal activity) of compound of formula (I) at 30 μM and the % of control (basal activity) of AMP (natural […]) at 30 μM.
Compounds of formula (I) are considered as direct activator of AMPK if the ratio is 90% or higher.

ob/ob and db/db mice = conditions: 8 day AICAR administration; cited from earlier work

T1 sequence (Q13131 whole entry): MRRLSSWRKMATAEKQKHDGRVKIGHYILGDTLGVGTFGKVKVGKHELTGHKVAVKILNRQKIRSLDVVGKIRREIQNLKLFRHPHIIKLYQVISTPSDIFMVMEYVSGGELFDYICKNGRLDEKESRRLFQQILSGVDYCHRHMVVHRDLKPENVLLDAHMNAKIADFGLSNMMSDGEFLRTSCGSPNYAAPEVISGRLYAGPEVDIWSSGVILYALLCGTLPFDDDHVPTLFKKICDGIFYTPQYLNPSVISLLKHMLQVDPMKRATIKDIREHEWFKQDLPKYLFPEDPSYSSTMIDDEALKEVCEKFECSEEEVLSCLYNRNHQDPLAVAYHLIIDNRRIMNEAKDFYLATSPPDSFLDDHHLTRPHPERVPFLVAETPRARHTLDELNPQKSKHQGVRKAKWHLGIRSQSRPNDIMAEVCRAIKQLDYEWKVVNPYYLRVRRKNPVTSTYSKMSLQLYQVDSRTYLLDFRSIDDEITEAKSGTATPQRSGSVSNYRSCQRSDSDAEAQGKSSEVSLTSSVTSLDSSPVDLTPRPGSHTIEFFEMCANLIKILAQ
T1 sequence (Q9Y478 whole entry): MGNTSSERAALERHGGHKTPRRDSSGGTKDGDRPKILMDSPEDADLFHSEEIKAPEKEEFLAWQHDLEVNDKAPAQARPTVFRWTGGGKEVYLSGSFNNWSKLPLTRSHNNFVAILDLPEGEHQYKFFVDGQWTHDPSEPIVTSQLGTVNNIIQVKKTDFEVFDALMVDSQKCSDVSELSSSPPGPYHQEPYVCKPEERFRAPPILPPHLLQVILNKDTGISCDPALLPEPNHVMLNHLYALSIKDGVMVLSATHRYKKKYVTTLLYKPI
T1 sequence (Q9UGJ0 whole entry): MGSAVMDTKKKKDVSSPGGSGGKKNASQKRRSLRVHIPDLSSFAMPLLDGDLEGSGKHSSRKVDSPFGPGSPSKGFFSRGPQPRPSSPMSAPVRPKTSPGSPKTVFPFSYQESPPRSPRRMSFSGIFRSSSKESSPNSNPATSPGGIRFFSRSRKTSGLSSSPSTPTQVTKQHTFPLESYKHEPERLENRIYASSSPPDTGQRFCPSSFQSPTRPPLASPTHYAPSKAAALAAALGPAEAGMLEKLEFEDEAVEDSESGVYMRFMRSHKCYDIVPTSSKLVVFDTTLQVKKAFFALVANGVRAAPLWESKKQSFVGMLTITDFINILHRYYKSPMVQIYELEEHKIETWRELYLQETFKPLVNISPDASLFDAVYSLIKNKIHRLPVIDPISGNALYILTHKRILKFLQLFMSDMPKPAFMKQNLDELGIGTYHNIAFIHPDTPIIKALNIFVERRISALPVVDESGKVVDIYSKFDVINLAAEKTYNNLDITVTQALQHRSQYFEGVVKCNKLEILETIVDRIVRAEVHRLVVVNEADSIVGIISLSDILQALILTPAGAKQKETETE

SMILES	Activity: ratio between the % of control (basal activity) of compound at 30 μM and the % of control (basal activity) of AMP at 30 μM [1]	reduction of blood glucose (ob/ob and db/db mice)
O=c1[nH]c2cccc(O)c2[nH]c1=O [5-hydroxy-1,4-dihydroquinoxaline-2,3-dione]	130%	
CC(=O)Oc1cccc2[nH]c(=O)c(=O)[nH]c12 [Acetic acid 2,3-dioxo-1,2,3,4-tetrahydro-quinoxalin-5-yl ester]	120%	
NC(=O)c1ncn([C@@H]2O[C@H](CO)[C@@H](O)[C@H]2O)c1N [AICAR]		35%

Reference: patent US8674097B2, “Quinoxalinedione derivatives useful as activators of AMPK-activated protein kinase” (Merck Patent GmbH, priority 2008, dated 2014)
